Reference: PubChem BioAssay (NCI)
Values joined by “and” are separate entries in the source; they are usually repeats but may differ in a detail not shown here. Identical values can stand only once.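 These data come from cells grown in 96-well plates and exposed to compound for 48 hours at five concentrations. GI50 is the concentration that inhibits growth by half. TGI: concentration producing complete growth inhibition.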

Experiments:
Experiment in all cases: NCI tumour cell line growth inhibition, 48 h
HCC-2998 colon = system: HCC-2998 colon
KM12 colon = system: KM12 colon
UACC-257 melanoma = system: UACC-257 melanoma
SNB-19 CNS = system: SNB-19 CNS
786-0 renal = system: 786-0 renal
SK-OV-3 ovarian = system: SK-OV-3 ovarian
A498 renal = system: A498 renal
MDA-MB-231 breast = system: MDA-MB-231 breast
EKVX NSCLC = system: EKVX NSCLC
BT-549 breast = system: BT-549 breast

| Compound | GI50 (HCC-2998 colon) | TGI (HCC-2998 colon) | GI50 (KM12 colon) [µM] | TGI (KM12 colon) | GI50 (UACC-257 melanoma) | TGI (UACC-257 melanoma) | GI50 (SNB-19 CNS) | TGI (SNB-19 CNS) | GI50 (786-0 renal) | TGI (786-0 renal) | GI50 (SK-OV-3 ovarian) [µM] | TGI (SK-OV-3 ovarian) | GI50 (A498 renal) [µM] | TGI (A498 renal) [µM] | GI50 (MDA-MB-231 breast) [µM] | TGI (MDA-MB-231 breast) [µM] | GI50 (EKVX NSCLC) [µM] | TGI (EKVX NSCLC) | GI50 (BT-549 breast) [µM] | TGI (BT-549 breast) [µM] |
| --- | --- | --- | --- | --- | --- | --- | --- | --- | --- | --- | --- | --- | --- | --- | --- | --- | --- | --- | --- | --- |
| NCCSC(C[N+](=O)[O-])c1ccccc1Cl (stereo unspecified) | 2.1 µM | 4.03 µM | 1.82 | 3.42 µM | 1.91 µM | 4.31 µM | 3.38 µM | 11.5 µM | 2.16 µM | 4.33 µM | 11.7 | 24 µM | 2.3 | 4.69 | 12 | 25.8 | 16.9 | 41.6 µM | 2.03 | 4.26 |
| COc1cc(-c2oc3c(OC)c(O)cc(O)c3c(=O)c2OC)ccc1O |  | 50.4 µM |  | > 100 µM |  | > 94.2 µM |  | > 100 µM |  | > 100 µM |  | 9.15 µM |  | 17.2 |  | > 100 |  | 72.5 µM |  | 59.2 |
| COc1cc2c3cc1Oc1c(OC)c(OC)cc4c1C(Cc1ccc(cc1)Oc1cc(ccc1O)CC3N(C)CC2)N(C)CC4 (stereo unspecified) | 11.7 µM and 2.71 µM | 25 µM and 11.7 µM |  | 24.8 µM and 26.2 µM | 13.3 µM and 1.96 µM | 26.7 µM and 4.29 µM | 28.6 µM and 12 µM | 72.7 µM and 24.7 µM | > 100 µM and 10.2 µM | > 100 µM and 38.5 µM |  | 69.6 µM and 86.2 µM |  | 32.9 |  | 24.5 |  | > 100 µM and 33.3 µM |  | 22.8 |
| CN(C)C(=S)SCC(N)=O |  | > 100 µM |  | > 100 µM |  | > 100 µM |  | > 100 µM |  | > 100 µM |  | > 100 µM |  | > 100 |  | > 100 |  | > 100 µM |  | > 100 |
| CC1=NN(C(=O)c2nn(-c3ccc(Cl)cc3)cc2O)C(=O)C1 | 3.37 µM | > 100 µM | 4.52 | > 100 µM | 6.27 µM | 28.9 µM | 3.16 µM | > 100 µM | 5.33 µM | > 60.4 µM | 1.79 | > 100 µM | 2.92 | > 82 | 2.75 | > 100 | 1.93 | > 100 µM | 0.766 | > 100 |
| COc1ccc2c(c1)C=C1CSCC3=Cc4cc(OC)ccc4OC13O2 | 1.07 µM | > 100 µM | 0.513 | > 100 µM | > 100 µM | > 100 µM | 0.552 µM | > 100 µM | 0.821 µM | > 100 µM | 0.671 | > 100 µM | 0.23 | 0.766 | 0.568 | > 100 | 3.14 | > 100 µM | 0.816 | > 100 |
| CCc1c2c(nc3ccc(OCc4ccc(B5OC(C)(C)C(C)(C)O5)cc4)cc13)-c1cc3c(c(=O)n1C2)COC(=O)[C@]3(O)CC | 0.185 µM | > 100 µM | 0.137 | 1.62 µM | 0.0477 µM | 1.26 µM | < 0.01 µM | > 100 µM | 0.02 µM | 0.0691 µM |  |  | 0.0406 | 0.376 | 1.1 | > 100 | 0.431 | > 100 µM | 0.0757 | > 100 |
| CN(C)CC1=Nc2cccc3cccc(c23)N1 |  | 32.3 µM |  | 59.3 µM |  | 31 µM |  | > 100 µM |  | 25.8 µM |  | > 100 µM |  | 28.2 |  | 34.7 |  | 31.7 µM |  | 31.5 |
| C=C(C)C(=O)O[C@H]1CC2=CC(CC(C)=C[C@H]3OC(=O)C(=C)C13)OC2=O (stereo partly specified) |  | > 100 µM |  | 47.1 µM |  | 96.3 µM |  | > 100 µM |  | 24.4 µM |  |  |  | 76 |  | 60.8 |  | 43.8 µM |  | 38.9 |
